Assay results taken from patent publication US20170107207A1, “AMINOPYRAZOLONE DERIVATIVE” (DAIICHI SANKYO COMPANY, LIMITED, priority 2014, published 2017).

Experiments:
TIP48/TIP49 complex = biological target: T1, TIP48/TIP49 complex (Homo sapiens, UniProt Q9Y230+Q9Y265); assay: ATPase assay of TIP48/TIP49 complex (ADP-Glo); format: biochemical; conditions: concentration at which the ATPase activity was inhibited by 50%
T1 construct: made in house; host or cells: E. coli
In short: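 Compound was tested over 10 four-fold concentrations, 200 μM down to 0.0007 μM at 2% DMSO, against E. coli-derived human rTIP48/rTIP49 for 1.5 h at room temperature, pH 7.5 with ATP. ATP hydrolysis was read as ADP-Glo luminescence, normalised to complex-only and no-complex wells, then fitted to dose-response curves.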

[1] = tested on: human lymphoma cell line RAMOS cells; assay: Cell growth inhibition test using RAMOS cell, MTT assay; format: cell-based; conditions: 50% growth inhibition concentration
Procedure: A cell growth inhibition test was carried out by treating human lymphoma cell line RAMOS cells with a test compound for a given period and then counting the number of viable cells by MTT assay or CellTiter-Glo Luminescent Cell Viability Assay (manufactured by Promega Corp.; hereinafter, referred to as ATP assay).
RAMOS cells were suspended in a medium (RPMI1640 medium containing 10% fetal bovine serum). The cell suspension was inoculated at 5000 cells/150 μL/well to a 96-well multiwell plate. The test compound was dissolved in DMSO, and this solution was diluted with medium to prepare a sample solution (DMSO concentration: 1% or lower). Subsequently, test compound-free medium or the sample solution was added thereto at 50 μL/well. The MTT assay was carried out at the day of addition of the sample solution or the DMSO dilution to the cells and after culture at 37° C. for 3 days under 5% CO2 of the cells supplemented with the sample solution or the medium. The MTT assay was carried out as follows.
A 5 mg/mL solution of MTT (3-(4,5-dimethylthiazol-2-yl)-2,5-diphenyltetrazolium bromide, Sigma-Aldrich Corp., M-2128) was prepared using a phosphate buffered solution (Dulbecco's phosphate-buffered saline). This MTT solution was added at 20 μL/well to the plate. Then, the plate was incubated at 37° C. for 4 hours under 5% CO2. The plate was centrifuged at 1200 rpm for 5 minutes, and then, the culture supernatant was removed by suction using a dispenser. DMSO was added thereto at 150 μL/well to dissolve formed formazan. […] from each well was rendered uniform by the stirring of the plate using a plate mixer. The absorbance of each well was measured using a plate reader under conditions involving OD of 540 nm and reference of 660 nm.
The number of viable cells and absorbance (hereinafter, referred to as an OD value) have been confirmed to correlate with each other. Therefore, the rate of cell growth was calculated according to the following expression: Rate of cell growth (T/C %) of a test compound-supplemented well=100×[(B−C)/(A−C)] wherein A represents the OD value (final culture date) of a test compound-free well; B represents the OD value (final culture date) of a test compound-containing well; and C represents the OD value (day of cell inoculation) of a well at the start of contact of the cells with the test compound.
T/C % at each concentration of the test compound was determined. The concentration at which the test compound offered 50% growth rate was calculated as a 50% growth inhibition concentration (GI50) value from the growth rates at two points interpolating 50% and the concentrations, and is shown in Table 56.

T1 sequence (Q9Y230 whole entry): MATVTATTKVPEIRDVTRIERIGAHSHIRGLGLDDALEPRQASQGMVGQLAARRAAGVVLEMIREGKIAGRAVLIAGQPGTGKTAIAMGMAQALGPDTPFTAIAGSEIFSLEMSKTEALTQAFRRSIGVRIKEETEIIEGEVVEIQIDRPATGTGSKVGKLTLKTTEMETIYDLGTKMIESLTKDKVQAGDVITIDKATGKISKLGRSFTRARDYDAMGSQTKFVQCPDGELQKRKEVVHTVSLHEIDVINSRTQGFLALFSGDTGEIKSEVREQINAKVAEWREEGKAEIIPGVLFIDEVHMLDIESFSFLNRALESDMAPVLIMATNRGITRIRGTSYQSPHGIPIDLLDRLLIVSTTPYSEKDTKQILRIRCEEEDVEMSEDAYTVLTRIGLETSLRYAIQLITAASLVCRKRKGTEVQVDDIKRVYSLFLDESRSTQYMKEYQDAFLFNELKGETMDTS
T1 sequence (Q9Y265 whole entry): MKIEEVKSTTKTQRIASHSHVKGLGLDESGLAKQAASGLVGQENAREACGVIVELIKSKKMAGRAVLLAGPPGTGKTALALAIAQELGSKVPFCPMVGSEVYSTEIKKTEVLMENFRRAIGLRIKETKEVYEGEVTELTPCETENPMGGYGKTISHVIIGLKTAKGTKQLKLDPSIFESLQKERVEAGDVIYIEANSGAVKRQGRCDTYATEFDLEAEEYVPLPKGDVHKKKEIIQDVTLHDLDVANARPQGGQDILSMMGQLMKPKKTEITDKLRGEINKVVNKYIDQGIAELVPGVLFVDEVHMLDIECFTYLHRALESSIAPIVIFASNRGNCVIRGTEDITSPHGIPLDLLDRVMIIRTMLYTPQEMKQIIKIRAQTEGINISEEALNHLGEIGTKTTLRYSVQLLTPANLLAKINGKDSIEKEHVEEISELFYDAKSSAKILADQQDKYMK

Row | SMILES | IC50 (TIP48/TIP49 complex) [nM] | GI50 [1] [nM]
1 | CCOc1ccc(Cl)cc1C(=O)NCC(C)(C)CC(=O)Nc1c(CCCCN(C)C)n(C)n(-c2ccccc2)c1=O [Example 88, 5-Chloro-N-[4-({5-[4-(dimethylamino)butyl]-1-methyl-3-oxo-2-phenyl-2,3-dihydro-1H-pyrazol-4-yl}amino)-2,2-dimethyl-4-oxobutyl]-2-ethoxybenzamide] | 33 | 61
2 | CCOc1ccc(Cl)cc1C(=O)NCC(C)(C)CC(=O)Nc1c(C)n(C)n(-c2ccccc2)c1=O [Example 93, 5-Chloro-N-{4-[(1,5-dimethyl-3-oxo-2-phenyl-2,3-dihydro-1H-pyrazol-4-yl)amino]-2,2-dimethyl-4-oxobutyl}-2-ethoxybenzamide] | 25 | 55
3 | Cc1c(NC(=O)CC(C)(C)CNC(=O)c2cc(Cl)ccc2OC(C)C)c(=O)n(-c2ccccc2)n1C [Example 94] | 87 | 73
4 | CCOc1ncc(Cl)cc1C(=O)NCC(C)(C)CC(=O)Nc1c(C)n(C)n(-c2ccccc2)c1=O [Example 95] | 59 | 180
5 | Cc1c(NC(=O)CC(C)(C)CNC(=O)c2cc(Cl)ccc2OC2CC2)c(=O)n(-c2ccccc2)n1C [Example 96] | 35 | 120
6 | Cc1c(NC(=O)CC(C)(O)CNC(=O)c2cc(Cl)c(F)cc2OC(C)C)c(=O)n(-c2ccccc2)n1C (centres unmarked) [Example 97, 5-Chloro-N-{4-[(1,5-dimethyl-3-oxo-2-phenyl-2,3-dihydro-1H-pyrazol-4-yl)amino]-2-hydroxy-2-methyl-4-oxobutyl}-4-fluoro-2-isopropoxybenzamide] | 100 | 1000
7 | COc1ccc(Cl)cc1NC(=O)CC1(CC(=O)Nc2c(C)n(C)n(-c3ccccc3)c2=O)OCCO1 [Example 98, N-(5-Chloro-2-methoxyphenyl)-2-(2-{2-[(1,5-dimethyl-3-oxo-2-phenyl-2,3-dihydro-1H-pyrazol-4-yl)amino]-2-oxoethyl}-1,3-dioxolan-2-yl)acetamide] | 2200 | 9600
8 | CCC(C)(CC(=O)Nc1cc(Cl)ccc1OC)CC(=O)Nc1c(C)n(C)n(-c2ccccc2)c1=O (centres unmarked) [Example 99, N-(5-Chloro-2-methoxyphenyl)-N′-(1,5-dimethyl-3-oxo-2-phenyl-2,3-dihydro-1H-pyrazol-4-yl)-3-ethyl-3-methylpentanediamide] | 260 | 400
9 | COc1ccc(Cl)cc1NC(=O)CC1(CC(=O)Nc2c(C)n(C)n(-c3ccccc3)c2=O)CCC1 [Example 100, N-(5-Chloro-2-methoxyphenyl)-2-(1-{2-[(1,5-dimethyl-3-oxo-2-phenyl-2,3-dihydro-1H-pyrazol-4-yl)amino]-2-oxoethyl}cyclobutyl)acetamide] | 95 | 860
10 | COc1ccc(Cl)cc1NC(=O)CC1(CC(=O)Nc2c(C)n(C)n(-c3ccccc3)c2=O)CC1 [Example 101, N-(5-Chloro-2-methoxyphenyl)-2-(1-{2-[(1,5-dimethyl-3-oxo-2-phenyl-2,3-dihydro-1H-pyrazol-4-yl)amino]-2-oxoethyl}cyclopropyl)acetamide] | 450 | 3200

Further lines, results first:

Row | IC50 (TIP48/TIP49 complex) [nM] | GI50 [1] [nM] | SMILES
11 | 150 | 780 | CCOc1ccc(Cl)cc1NC(=O)CC(C)(CC(=O)Nc1c(C)n(C)n(-c2ccccc2)c1=O)OC(C)=O (centres unmarked) [Example 102, {1-[2-(5-Chloro-2-ethoxyaniline)-2-oxoethyl]-3-[(1,5-dimethyl-3-oxo-2-phenyl-2,3-dihydro-1H-pyrazol-4-yl)amino]-1-methyl-3-oxopropyl} acetate]
12 | 170 | 1400 | CCOc1ccc(Cl)cc1NC(=O)CC(C)(O)CC(=O)Nc1c(C)n(C)n(-c2ccccc2)c1=O (centres unmarked) [Example 103, N-(5-Chloro-2-ethoxyphenyl)-N′-(1,5-dimethyl-3-oxo-2-phenyl-2,3-dihydro-1H-pyrazol-4-yl)-3-hydroxy-3-methylpentanediamide]
13 | 250 | 1300 | COc1ccc(Cl)cc1NC(=O)CC(C)(CC(=O)Nc1c(C)n(C)n(-c2ccccc2)c1=O)OC (centres unmarked) [Example 104, N-(5-Chloro-2-methoxyphenyl)-N′-(1,5-dimethyl-3-oxo-2-phenyl-2,3-dihydro-1H-pyrazol-4-yl)-3-methoxy-3-methylpentanediamide]
14 | 26 | 74 | Cc1c(NC(=O)CC(C)(C)CNC(=O)c2cc(Cl)cc3c2OC(C)C3)c(=O)n(-c2ccccc2)n1C (centres unmarked) [Example 105, 5-Chloro-N-{4-[(1,5-dimethyl-3-oxo-2-phenyl-2,3-dihydro-1H-pyrazol-4-yl)amino]-2,2-dimethyl-4-oxobutyl}-2-methyl-2,3-dihydrobenzofuran-7-carboxamide]
15 | 35 | 100 | Cc1c(NC(=O)CC(C)(C)CNC(=O)c2cc(Cl)cc3c2OCCC3)c(=O)n(-c2ccccc2)n1C [Example 106, 6-Chloro-N-{4-[(1,5-dimethyl-3-oxo-2-phenyl-2,3-dihydro-1H-pyrazol-4-yl)amino]-2,2-dimethyl-4-oxobutyl}chromane-8-carboxamide]
16 | 66 | 190 | Cc1ccc2cc(Cl)cc(C(=O)NCC(C)(C)CC(=O)Nc3c(C)n(C)n(-c4ccccc4)c3=O)c2n1 [Example 107, 6-Chloro-N-{4-[(1,5-dimethyl-3-oxo-2-phenyl-2,3-dihydro-1H-pyrazol-4-yl)amino]-2,2-dimethyl-4-oxobutyl}-2-methylquinoline-8-carboxamide]
17 | 190 | 740 | Cc1c(NC(=O)CC(C)(C)CNC(=O)c2cc(Cl)ccc2OC2COC2)c(=O)n(-c2ccccc2)n1C [Example 108, 5-Chloro-N-{4-[(1,5-dimethyl-3-oxo-2-phenyl-2,3-dihydro-1H-pyrazol-4-yl)amino]-2,2-dimethyl-4-oxobutyl}-2-(oxetan-3-yloxy)benzamide]
18 | 200 | 200 | Cc1c(NC(=O)CC(C)(C)CNC(=O)c2cc(Cl)cc3c2OC(C)CN3)c(=O)n(-c2ccccc2)n1C (centres unmarked) [Example 109]
19 | 33 | 120 | Cc1c(NC(=O)CC(C)(C)CNC(=O)c2cc(Cl)cc3c2OC(C)CN3C)c(=O)n(-c2ccccc2)n1C (centres unmarked) [Example 110, 6-Chloro-N-{4-[(1,5-dimethyl-3-oxo-2-phenyl-2,3-dihydro-1H-pyrazol-4-yl)amino]-2,2-dimethyl-4-oxobutyl}-2,4-dimethyl-2,3-dihydro-1,4-benzoxazine-8-carboxamide]
20 | 44 | 90 | CCc1nc2c(C(=O)NCC(C)(C)CC(=O)Nc3c(C)n(C)n(-c4ccccc4)c3=O)cc(Cl)cc2o1 [Example 111, 6-Chloro-N-{4-[(1,5-dimethyl-3-oxo-2-phenyl-2,3-dihydro-1H-pyrazol-4-yl)amino]-2,2-dimethyl-4-oxobutyl}-2-ethyl-1,3-benzoxazole-4-carboxamide]
21 | 150 | 680 | COc1ccc(Cl)cc1C(=O)NCC(C)(C)C(O)C(=O)Nc1c(C)n(C)n(-c2ccccc2)c1=O (centres unmarked) [Example 112]
22 | 41 | 110 | CCOc1ncc(Cl)cc1C(=O)NCC(C)(C)CC(=O)Nc1c(COC)n(C)n(-c2ccccc2)c1=O [Example 117, 5-Chloro-2-ethoxy-N-(4-{[5-(methoxymethyl)-1-methyl-3-oxo-2-phenyl-2,3-dihydro-1H-pyrazol-4-yl]amino}-2,2-dimethyl-4-oxobutyl)pyridine-3-carboxamide]
